Reference: patent publication US12054510B2, “2′ and/or 5′ amino-acid ester phosphoramidate 3′-deoxy adenosine derivatives as anti-cancer compounds” (Nucana plc, priority 2014, dated 2024)

Tests used:
HT29 = test: Solid tumour and haematological malignancy assay (CellTiterGlo); assay type: cell-based
Procedure: (§1) In vitro viability assay were performed to assess the effects of compounds on cell viability in selected cell lines over 72 hr using the CellTiterGlo (CTG, Promega-G7573) assay. […] Cell viability assay using CellTiterGlo in 96-well plate were performed. Compound treatment 72 hrs, standard growth conditions, duplicates. Compounds were dissolved to 40 mM with thawed 100%. […] After compounds were dissolved in media, media containing compounds were warmed to 37° C. in incubator and then compounds in media were added to cell plates (50 μl+50 μl) in duplicates. […] All compound solubilities were checked and recorded again, then the plates were transferred to CO2 tissue culture incubator immediately and incubated for 3 days. DMSO final concentration is 0.5%.

CCRFCEM = test: as above; assay type: cell-based; details: for Emax: Homo sapiens, CCRF-CEM, 72 h, read-out: MI %
Procedure: as §1

KG-1 [1] = test: as above; assay type: cell-based
Procedure: as §1

SW620 = test: as above; assay type: cell-based; details: SW620; 72 hr
Procedure: (§2) In vitro viability assay were performed to assess the effects of compounds on cell viability in selected cell lines over 72 hr using the CellTiterGlo (CTG, Promega-G7573) assay. The tests were performed in duplicates with treatment of compounds at 9 points, 3.16 folds titration in 96 well plates over ˜72 hr. The compound starting concentrations were […]. Cell viability assay using CellTiterGlo in 96-well plate were performed. Compound treatment 72 hrs, standard growth conditions, duplicates. Compounds were dissolved to 40 mM with thawed […]. Compounds were serially diluted at 3.16 fold in thawed DMSO, and warmed to 37° C. before being dissolved in media (2 μl+200 μl). After compounds were dissolved in media, media containing compounds were warmed to 37° C. in incubator and then compounds in media were added to cell plates (50 μl+50 μl) in duplicates. The compounds' final concentrations were from 198M to 19.9 nM. All compound solubilities were checked and recorded again, then the plates were transferred to CO2 tissue culture incubator immediately and incubated for 3 days. DMSO final concentration is 0.5%.

Z138 = test: as above; assay type: cell-based; details: 72 hr
Procedure: as §2

BxPC-3 = test: as above; assay type: cell-based; details: 72 hr
Procedure: as §2

Jurkat = test: as above; assay type: cell-based; details: 72 hr
Procedure: as §2

MOLT-4 [2] = test: CellTiterGlo cell viability assay, initial screening; assay type: cell-based
Procedure: (§3) In vitro viability assays were performed to assess the effects of compounds on cell viability in 7 selected cell lines over 72 hr using the CellTiterGlo (CTG, Promega-G7573) assay. The tests were performed in duplicates with treatment of compounds at 9 points, 3.16 folds titration in 96 well plates over ˜72 hr. The compound starting concentrations were […]. Cell viability assay using CellTiterGlo in 96-well plate were performed. The compound treatment was 72 hrs, under standard growth conditions, and in duplicate. Compounds were dissolved to 40 mM with thawed […]. Compounds were serially diluted at 3.16 fold in thawed DMSO, and warmed to 37° C. before being dissolved in media (2 μl+200 μl). After compounds were dissolved in media (media was also warmed to 37° C.). Media containing compounds were warmed to 37° C. in incubator and then compounds in media were added to cell plates (50 μl+50 μl), in duplicates. The compounds final concentrations were from […] to 19.9 nM. All compound solubilities were checked and recorded again, then the plates were transferred to CO2 tissue culture incubator immediately and incubated for 3 days. DMSO final concentration is 0.5%.

MCF-7 = test: as above; assay type: cell-based
Procedure: as §3

HepG2 = test: as above; assay type: cell-based; details: HepG2; 72 hr; Table II
Procedure: as §3

HL-60 = test: as above; assay type: cell-based
Procedure: as §3

K562 = test: as above; assay type: cell-based; details: 72 hr, Table II
Procedure: as §3

KG-1 [3] = test: as above; assay type: cell-based
Procedure: as §3

CCRF-CEM = test: as above; assay type: cell-based
Procedure: as §3

RL (CRL-2261) = test: ATP ViaLight plus cell viability assay; assay type: cell-based
Procedure: (§4) Certain compounds of the invention were subjected to further studies to test the cytotoxic activity of certain compounds of the invention and also to measure their activity against 4 haematological cancer cell lines • TdT positive CEM (Human ALL) • TdT negative K562 (Human CML) • TdT negative H1-60 (Human ANLL) • RL (CRL-2261) non-HD lymphoma • The concentrations of the active metabolite dATP (Cordycepin triphosphate) in these cell lines was also measured. • The cytotoxic activity and the intracellular 3′-dATP concentrations were also studied in the presence of hENT1, Adenosine Kinase (AK) and Adenosine Deaminase pharmacological inhibitors in CEM and RL cancer cell lines. Said inhibitors that mimic known cancer resistance mechanisms. Methods Cell Culture
(§5) HL-60, K562, CCRF-CEM and RL cell lines were cultured in RPMI-1640 medium (Sigma Aldrich, UK), which were supplemented with 10% Fetal Bovine Serum (FBS) (PAA Laboratories), 1% amphotericin B (5.5 ml) and 1% penicillin/streptomycin (5.5 ml) (PAA Laboratories) and grown in flasks at 37° C. incubator with 5% CO2.
(§6) The amount of ATP was used as a measurement of cell number and cell viability. ATP ViaLight™ plus assay kit (Lonza, USA: Product No. LT07-121) to detect ATP in cells treated in luminescence compatible 96 well plates (initial concentration of cells was 1×10^4 cells/well) with cordycepin and ProTides at concentrations of: 0, 0.1, 0.5, 1, 5 and 10 μM, followed by incubation for 72 hours at 37° C. incubator with 5% CO2. For inhibitor studies, 10 μM of NBTI or 1 μM EHNA or A-134974 was added and left for 5 minutes before adding the drugs (see section 5 for inhibitor details).
(§7) After incubation, 50 μl of cell lysis reagent was added to the 96 well plates to release the intracellular ATP, followed by 100 μl of ATP monitoring reagent (AMR). The luminescent values of each well were determined using FLUOstar OPTIMA microplate reader (BMG Labtech) which convert ATP into light by using luciferase enzyme. Therefore, the amount of luminescence produced was directly proportional to the amount of ATP.
(§8) Cell lines were treated in the same way as described above but before treatment with drugs, a number of inhibitors were added: • 1) Nitrobenzylthioinosine (NBTI) (Sigma-Aldrich, St. Louis, MO, product # N2255) blocks nucleoside transporters • 2) EHNA hydrochloride (Sigma-Aldrich, St. Louis, MO, product # E114) blocks adenosine deaminase • 3) Adenosine kinase inhibitor A-134974 dihydrochloride hydrate (Sigma-Aldrich, St. Louis, MO, product # A2846): blocks adenosine kinase
(§9) The dose-response curves of cytotoxicity of the drugs was determined using non-linear regression analysis of percentage cell viability versus concentration and EC50 values were obtained. The intracellular assay was conducted in five replicates for each condition. Intracellular assay was determined using paired t test (two-tailed) analysis of 3′ ATP/ATP concentration and p-values were obtained. For all the analysis, Prism Software program (GraphPad Software) was used and Microsoft Powerpoint® 2013 was used to plot the results.

CEM (TdT+ve) = test: ATP ViaLight plus cell viability assay; assay type: cell-based, Human; details: CEM
Procedure: as §4, §5, §6, §7, §8, §9

MCF7 = test: Solid tumour and haematological malignancy assay (CellTiterGlo); assay type: cell-based; details: Homo sapiens, MCF7, 72 h, read-out: MI %
Procedure: as §1

MOLT-4 [4] = test: as above; assay type: cell-based; details: Homo sapiens, MOLT-4, 72 h, read-out: MI %
Procedure: as §2

RL = test: as above; assay type: cell-based; details: Homo sapiens, 72 h, read-out: MI %
Procedure: as §2

NCI-H929 = test: as above; assay type: cell-based; details: Homo sapiens, NCI-H929, 72 h, read-out: MI %
Procedure: as §2

Nc1ncnc2c1ncn2[C@@H]1O[C@H](COP(=O)(NCC(=O)OCc2ccccc2)Oc2ccccc2)C[C@H]1O (stereo partly drawn) [C, Benzyl 2-(((((2S,4R,5R)-5-(6-amino-9H-purin-9-yl)-4-hydroxytetrahydrofuran-2-yl)methoxy)(phenoxy)phosphoryl)amino)acetate] gave an MI % (HT29; HT29, 72 hr) of 99%, an MI % (CCRFCEM; CCRFCEM, 72 hr) of 100% and an MI % (KG-1 [1]; KG-1, 72 hr) of 102%. For the same compound, the MI % (SW620) was 100%, the MI % (Z138) was 100% and the MI % (BxPC-3) was 99%. The MI % (Jurkat) was 100%, the “M.I. %: maximum percentage inhibition of cell viability” value (shortened to “M.I. %: maximum percentage inhibition”) (MOLT-4 [2]; MOLT-4, 72 hr, Table II) was 93% and the “M.I. %: maximum percentage inhibition” value (MCF-7; MCF-7, 72 hr, Table II) was 87%. For the same compound, the “M.I. %: maximum percentage inhibition” value (HepG2) was 59%, the “M.I. %: maximum percentage inhibition” value (HL-60; HL-60, 72 hr, Table II) was 82% and the “M.I. %: maximum percentage inhibition” value (K562) was 92%. The “M.I. %: maximum percentage inhibition” value (KG-1 [3]; KG-1, 72 hr, Table II) was 65% and the “M.I. %: maximum percentage inhibition” value (CCRF-CEM; CCRF-CEM, 72 hr, Table II) was 94%.
CCCCCOC(=O)[C@H](CC(C)C)NP(=O)(OC[C@@H]1C[C@H](O)[C@H](n2cnc3c(N)nc(OC)nc32)O1)Oc1cccc2ccccc12 (stereo partly shown) [Compound M] gave an Emax (CCRFCEM) of 100%.
With Nc1ncnc2c1ncn2[C@@H]1O[C@H](CO)C[C@H]1O [Cordycepin, 3′-deoxyadenosine, reference compound] the “(FD) fold difference compared to control” value (RL (CRL-2261); AK) was 4, the “(FD) fold difference compared to control” value (RL (CRL-2261); EHNA) was 2 and the “(FD) fold difference compared to control” value (RL (CRL-2261); NBTI) was 2. The MI % (BxPC-3) was 22%, the MI % (Jurkat) was 20% and the “M.I. %: maximum percentage inhibition” value (MOLT-4 [2]; human, 72 h) was 52%. For the same compound, the “M.I. %: maximum percentage inhibition” value (MCF-7; human, 72 h) was 78%, the “M.I. %: maximum percentage inhibition” value (HepG2) was 66% and the “M.I. %: maximum percentage inhibition” value (HL-60; human, 72 h) was 88%. The “M.I. %: maximum percentage inhibition” value (K562) was 88%, the “M.I. %: maximum percentage inhibition” value (KG-1 [3]; human, 72 h) was 78% and the “M.I. %: maximum percentage inhibition” value (CCRF-CEM; human, 72 h) was 12%. For the same compound, the “(FD) fold difference compared to control” value (CEM (TdT+ve); AK) was 3, the “(FD) fold difference compared to control” value (CEM (TdT+ve); EHNA) was −16 and the “(FD) fold difference compared to control” value (CEM (TdT+ve); NBTI) was 5.
With COc1nc(N)c2ncn([C@@H]3O[C@H](COP(=O)(N[C@@H](C)C(=O)OCc4ccccc4)Oc4cccc5ccccc45)C[C@H]3O)c2n1 (stereo partly drawn) [K, (2S)-benzyl 2-((((2S,4R,5R)-5-(6-amino-2-methoxy-9H-purin-9-yl)-4-hydroxytetrahydrofuran-2-yl)methoxy)(naphthalen-1-yloxy)phosphorylamino)propanoate] the Emax (MCF7) was 99%, the Emax (HT29; Homo sapiens, HT-29, 72 h, read-out: MI %) was 98% and the Emax (CCRFCEM) was 102%. It also gave an Emax (KG-1 [1]; Homo sapiens, KG-1, 72 h, read-out: MI %) of 99%, an Emax (MOLT-4 [4]) of 104% and an Emax (RL) of 104%. The Emax (NCI-H929) was 102%.
